Article PMC3902015 (Journal of Alzheimer's disease : JAD, 2012)
Entries after “also recorded” stand apart in the source; their conditions may differ. One block for each compound: values may come before it.

Key:
[1] = Body weight during in vivo treatment; set-up: species or system C57BL/6 wild-type male mice; settings: caffeine 40 mg/kg ip once daily, treatment limited to 2 weeks
[2] = Drug concentration in plasma and brain homogenate; type: in vivo, C57BL/6 wild-type male mice; settings: for concentration at 3 h: brain homogenate
MRP1 = experiment: Western blot of MRP1 in brain homogenate; type: in vivo, C57BL/6 wild-type mice; settings: treated mice vs control
RAGE = experiment: Western blot of RAGE in isolated brain microvessels; type: in vivo, C57BL/6 wild-type mice; settings: treated mice vs control
P-gp [3] = experiment: Immunofluorescence staining of P-gp in isolated brain microvessels; set-up: species or system C57BL/6 wild-type mice; settings: mouse, in vivo
[4] = cited from earlier work
LRP1 [5] = experiment: RT-PCR of LRP1 mRNA in bEnd3 cells; type: cell-based, mouse; settings: 50 µM, 72 h, vs control
LRP1 [6] = experiment: Western blot of LRP1 protein in bEnd3 cells after drug treatment; settings: 50 µM, 72 h, vs control (DMSO)
LRP1 [7] = experiment: Immunofluorescence staining of LRP1 in isolated brain microvessels; set-up: species or system C57BL/6 wild-type mice; settings: mouse, in vivo
P-gp [8] = target: P-gp (Mus musculus, UniProt P21447); experiment: BEI% of 125I-Aβ40 with P-gp inhibition by intracerebral valspodar; type: in vivo, C57BL/6 mice; settings: for BEI% of 125I-Aβ40 after valspodar pretreatment: valspodar 24 ng/0.5 µl
LRP1 [9] = target: LRP1 (Mus musculus, UniProt Q91ZX7); experiment: BEI% of 125I-Aβ40 with LRP1 inhibition by intracerebral RAP; type: in vivo, C57BL/6 mice; settings: for BEI% of 125I-Aβ40 after RAP pretreatment: RAP 19.5 ng/0.5 µl
cognitive decline = settings: mild to moderate AD patients, 3-month course of 300 mg/day; cited from earlier work
[10] = after administration of 6.4 mg/kg dose; cited from earlier work
P-gp [11] = settings: bEnd3 cells, 50 µM, 72 h, vs control (DMSO)
MDR1 = settings: bEnd3 cells, 50 µM, 72 h, vs control

Chain of P-gp (Mus musculus, UniProt P21447) (P21447 whole entry): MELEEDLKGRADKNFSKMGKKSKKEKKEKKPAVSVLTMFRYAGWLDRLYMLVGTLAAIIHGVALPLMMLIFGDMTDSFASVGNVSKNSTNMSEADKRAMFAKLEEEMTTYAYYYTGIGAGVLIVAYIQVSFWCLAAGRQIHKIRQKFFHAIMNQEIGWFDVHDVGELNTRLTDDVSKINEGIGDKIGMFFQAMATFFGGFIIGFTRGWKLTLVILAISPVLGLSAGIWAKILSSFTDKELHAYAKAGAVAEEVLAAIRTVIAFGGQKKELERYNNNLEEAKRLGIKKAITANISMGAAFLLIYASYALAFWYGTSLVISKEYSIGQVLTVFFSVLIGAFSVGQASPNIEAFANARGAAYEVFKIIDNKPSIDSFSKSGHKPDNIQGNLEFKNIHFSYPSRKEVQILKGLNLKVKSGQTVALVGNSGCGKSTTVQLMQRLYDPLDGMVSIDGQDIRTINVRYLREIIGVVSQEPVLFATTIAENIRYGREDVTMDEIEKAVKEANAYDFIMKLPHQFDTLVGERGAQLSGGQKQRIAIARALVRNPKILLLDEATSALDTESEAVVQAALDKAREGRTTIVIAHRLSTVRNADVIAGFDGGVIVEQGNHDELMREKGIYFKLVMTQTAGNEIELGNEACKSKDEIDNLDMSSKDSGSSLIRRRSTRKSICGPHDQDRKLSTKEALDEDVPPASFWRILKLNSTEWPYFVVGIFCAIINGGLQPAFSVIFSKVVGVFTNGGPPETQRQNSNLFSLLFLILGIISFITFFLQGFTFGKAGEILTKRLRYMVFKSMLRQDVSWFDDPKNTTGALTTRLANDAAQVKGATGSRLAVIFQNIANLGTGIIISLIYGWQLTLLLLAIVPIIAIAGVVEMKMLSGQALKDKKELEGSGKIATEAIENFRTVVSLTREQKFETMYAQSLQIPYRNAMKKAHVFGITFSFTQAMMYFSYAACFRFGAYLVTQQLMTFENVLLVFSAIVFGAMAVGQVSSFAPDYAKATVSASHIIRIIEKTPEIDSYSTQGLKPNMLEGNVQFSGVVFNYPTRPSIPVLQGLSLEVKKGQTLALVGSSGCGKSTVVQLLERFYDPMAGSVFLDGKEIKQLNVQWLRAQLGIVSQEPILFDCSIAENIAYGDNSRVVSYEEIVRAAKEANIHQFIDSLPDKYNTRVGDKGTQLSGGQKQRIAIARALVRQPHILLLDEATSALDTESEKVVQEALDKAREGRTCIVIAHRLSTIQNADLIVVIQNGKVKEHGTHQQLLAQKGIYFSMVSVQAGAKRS

Compound: Cn1c(=O)c2c(ncn2C)n(C)c1=O [Caffeine]
body weight observation during treatment [1]: weight loss
Drug concentration Plasma ([2]; 3 h after last ip dose (rifampicin 20 mg/kg, caffeine 40 mg/kg daily), n = 12): 20 ± 5.4 µg/mL
Kp at 3 h ([2]; male, C57BL/6, mouse, brain homogenate / plasma, ip): 0.5
concentration at 3 h ([2]; male, C57BL/6, mouse, ip): 11800 ± 3600 ng/mL
effect on brain homogenate's MRP1 expression (western blot) (MRP1): did not alter; also recorded: Insignificant differences
effect on microvessels' RAGE expression (western blot) (RAGE): did not alter; also recorded: Insignificant differences
increase in P-gp expression in brain microvessels (immunofluorescence) (P-gp [3]): 2.3 fold
plasma protein binding [4]: 10–37%
increase in mRNA level of LRP1 (RT-PCR) (LRP1 [5]): did not show any effect
increase in LRP1 level (densitometric analysis of western blot) (LRP1 [6]): but not caffeine
increase in LRP1 expression in brain microvessels (immunofluorescence) (LRP1 [7]): 1.2 fold

reduction in BEI% values by valspodar (P-gp [8]; caffeine-treated mice): ~32%
BEI% of 125I-Aβ40 after valspodar pretreatment (P-gp [8]; caffeine-treated mice, without valspodar 80.4±[…]): 48.1 ±2.3%
reduction in BEI% values by valspodar (P-gp [8]; rifampicin-treated mice): ~25%
BEI% of 125I-Aβ40 after valspodar pretreatment (P-gp [8]; rifampicin-treated mice, without valspodar 82.4±[…]): 57.5± 1.1%
Compound: C/C=C/C[C@@H](C)C(=O)[C@H]1C(=O)N[C@@H](C(C)C)C(=O)N(C)CC(=O)N(C)[C@@H](CC(C)C)C(=O)N[C@@H](C(C)C)C(=O)N(C)[C@@H](CC(C)C)C(=O)N[C@@H](C)C(=O)N[C@H](C)C(=O)N(C)[C@@H](CC(C)C)C(=O)N(C)[C@@H](CC(C)C)C(=O)N(C)[C@@H](C(C)C)C(=O)N1C [Valspodar]

BEI% of 125I-Aβ40 after RAP pretreatment (LRP1 [9]; caffeine-treated mice, without RAP 80.4 ±[…]): 76.9 ±2.5%
reduction in BEI% values by RAP (LRP1 [9]; control mice): about 33%
reduction in BEI% values by RAP (LRP1 [9]; rifampicin-treated mice): ~13%
BEI% of 125I-Aβ40 after RAP pretreatment (LRP1 [9]; rifampicin-treated mice, without RAP 82.4±[…]): 69.7 ±3.3%
Compound: RAP: human receptor associated protein, a specific LRP1 inhibitor

Compound: CO[C@H]1/C=C/O[C@@]2(C)Oc3c(C)c(O)c4c(O)c(c(/C=N/N5CCN(C)CC5)c(O)c4c3C2=O)NC(=O)/C(C)=C\C=C\[C@H](C)[C@H](O)[C@@H](C)[C@@H](O)[C@@H](C)[C@H](OC(C)=O)[C@@H]1C [Rifampicin]
effect on rate of cognitive decline (cognitive decline): attenuated the rate of cognitive decline
concentration at 3 h ([2]; male, C57BL/6, mouse, ip): 150 ± 80 ng/mL
free (unbound) plasma level in humans [10]: 1.08 µg/mL
increase in P-gp level (densitometric analysis of western blot) (P-gp [11]): 1.45 fold
increase in mRNA of MDR1 (RT-PCR) (MDR1): 1.5 fold
increase in mRNA level of LRP1 (RT-PCR) (LRP1 [5]): 1.4 fold
increase in LRP1 level (densitometric analysis of western blot) (LRP1 [6]): 1.2 fold
